From BindingDB's records for doi:10.1021/jm020211+ (National Institute of Diabetes and Digestive and Kidney …, 2002)

Target: T1, Adenosine receptor A3 (Homo sapiens, UniProt P0DMS8)
T1 sequence (P0DMS8 whole entry): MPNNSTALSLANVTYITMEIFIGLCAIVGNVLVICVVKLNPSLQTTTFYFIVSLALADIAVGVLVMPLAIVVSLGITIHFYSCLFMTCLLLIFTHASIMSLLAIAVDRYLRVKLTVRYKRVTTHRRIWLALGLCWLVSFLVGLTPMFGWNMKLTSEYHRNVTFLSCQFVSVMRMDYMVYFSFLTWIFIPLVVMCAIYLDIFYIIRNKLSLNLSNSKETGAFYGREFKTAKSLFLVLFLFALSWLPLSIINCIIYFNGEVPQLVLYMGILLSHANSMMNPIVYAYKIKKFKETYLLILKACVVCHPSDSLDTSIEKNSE
Experiment: Effect on forskolin-stimulated cyclic AMP production in intact chinese hamster ovary (CHO) cell expressing the human Adenosine A3 receptor

EC50: 803 nM
Compound: Nc1nc(Cl)nc2c1ncn2C1C(O)C(O)C2(CO)CC12 (stereo unspecified) [4-(6-Amino-2-chloro-purin-9-yl)-1-hydroxymethyl-bicyclo[3.1.0]hexane-2,3-diol]
